Drawing on patent US20030004201A1, “Medicament” (SmithKline Beecham p.l.c., priority 1990, published 2003), this text covers melting point for three compounds.

The structures appear in SMILES notation. Structures can show the parent of a compound that is named as a salt.

The melting point is the temperature, or range, at which the solid turns liquid.

Take `CCCCc1ncc(CC(Cc2ccccc2)C(=O)O)n1Cc1ccccc1Cl` (stereo not drawn) (as salt: hydrochloride) [Example 2, 3-[2-n-Butyl-1-{(2-chlorophenyl)methyl}-1H-imidazol-5-yl]-2-benzylpropanoic Acid]: the melting point was in the range of 118 to 120 °C. The figure for `CCCSc1ncc(C[C@H](NC(=O)CCC)C(=O)O)n1Cc1ccccc1Cl` [Example 1, 3-[(2-Chlorophenyl)methyl]-2-propylthio-N-butyrylhistidine] is 178 to 181 °C; for `CCCCc1nc2cc(Br)cc(C(=O)O)c2n1Cc1ccccc1Cl` [Example 4, 5-Bromo-2-n-butyl-1-(2-chlorophenyl)methyl-1H-benzimidazole-7-carboxylic Acid] it is 254 to 255 °C.
